The values below come from US20090054368A1, “Substituted gemini surfactant compounds” (University of Saskatchewan, priority 2007, published 2009).

One data set relates to cultured cells. The data set is described as follows: Viability of cells following transfection. The conditions noted are these: for cell viability / toxicity (in words): after transfection with plasmid DNA-gemini surfactant-DOPE. The class given is cell-based. On the procedure: Ideal transfection reagents are minimally toxic and/or disruptive to cells. Accordingly, the N-substituted surfactants were tested for toxicity in cultured cells. The viability of cells following transfection with either plasmid DNA-gemini surfactant-DOPE or Lipofectamine Plus are shown in FIG. 3. The aza-substituted surfactants 12-5N-12, 12-8N-12, and 12-7N-12 had similar toxicity compared to the Lipofectamine Plus reagent, with cell viability around 80% of the controls (i.e., no treatment or plasmid DNA alone; p>0.05).

The conditions of data set [1]: previous work [11]; cited from earlier work.
The nature of data set [2]: Small angle X-ray scattering (SAXS) of plasmid DNA-gemini surfactant-DOPE complexes. The class given is physicochemical. The conditions noted are these: plasmid DNA-gemini surfactant-DOPE complexes. On the procedure: SAXS measurements were carried out at beamline X21 at the National Synchrotron Light Source at Brookhaven National Laboratory. Beamline X21 is based on a wiggler source, with a helium gas-cooled Si(111) monochromator selecting the photon energy. The X-ray beam is focused by a toroidal mirror into the experimental station. Three pairs of precision slits, positioned at 4 m, 1 m, and 5 cm upstream of the sample, define the beam. The scattering pattern is recorded using a 13 cm Mar CCD detector (Mar USA, Evanston, Ill.) located 1.26 m (calibrated with the scattering pattern of silver behenate) downstream of the sample. The measurements were performed with 12 KeV x-rays and the data covered a q-range from 0.008 Å^−1 to 0.375 Å^−1. All beam paths are under vacuum, except at the sample position, where the sample is in air, and kapton windows terminate the vacuum beam paths. Samples were loaded into 1.5 mm capillaries (Charles Supper #15-BG, Natick Mass.) and data recorded at room temperature. All spectra were processed to remove background contributions by subtracting the scattering profile obtained for a water-filled capillary. Peak fitting was carried out using the open-sources software package “fityk” (available at http://www.unipress.waw.pl/fityk/; last accessed on Jul. 5, 2007) using multiple Gaussian functions.
Solutions for SAXS analysis were prepared by addition of appropriate amounts of stock surfactant, DNA, and DOPE solutions, followed by sonication (to ensure complete mixing) where appropriate. The pGTmCMV.IFN-GFP plasmid DNA was used in the SAXS studies. The final concentrations of DNA and DOPE were 0.075 mM (50 μg/mL) and 1.00 mM (0.75 mg/mL), respectively. The concentration of gemini surfactant was adjusted as needed to obtain the desired 1:10 DNA:surfactant charge ratio. Preliminary x-ray scattering studies indicated these concentrations to be too dilute to give good scattering signals; as a result, the samples were concentrated 5× by evaporation.

The subject of data set [3] is COS-7 African Green monkey kidney fibroblast cells. The data set is described as follows: Transfection assay (luciferase production after transfection with plasmid DNA-gemini surfactant complexes). The class given is cell-based. The conditions noted are these: PG complexes, complexed with DNA in the absence of helper lipid (DOPE).
The conditions of data set [4]: from reference [24]; cited from earlier work.
Data set [5] is described as follows: Average membrane charge density calculation for plasmid DNA-gemini surfactant-DOPE nanoparticles. The note with it: calculated from head group areas. The class given is physicochemical.
In data set [6] the test system is COS-7 African Green monkey kidney fibroblast cells. Description: Transfection assay (luciferase production after transfection with plasmid DNA-gemini surfactant complexes). The class given is cell-based. As for the experimental part:
COS-7 African Green monkey kidney fibroblast cells (ATCC CRL1651) were prepared for transfection in antibiotic and 10% fetal bovine serum supplemented minimal Eagle's medium (MEM). The day before transfection, 5×10^4 cells/well were seeded in 24-well plates (Greiner Labortechnik GmbH, Germany). The supplemented MEM was changed to MEM one hour prior to transfection.
The pMASIA.Luc plasmid DNA was used at a concentration of 0.2 μg/well for transfection. The transfection mixtures were prepared as follows: 0.2 μg of plasmid DNA was mixed with aliquots of gemini surfactant solution to obtain a plasmid DNA:gemini surfactant charge ratio of 1:10 and incubated at room temperature for 15 minutes. To this mixture, 25 μL of DOPE liposomes were added. The transfection mixtures were incubated for 30 minutes at room temperature prior to transfection and added to the cells, dropwise. The plates were incubated for 5 hours at 37° C. in a CO2 incubator. Dc-Chol (30-[N—(N′,N′-Dimethylaminoethane)-carbamoyl]cholesterol) was used for comparison and, as a positive control, cells were also transfected with Lipofectamine Plus™ Reagent (Invitrogen Life Technologies, Carlsbad, Calif.), according to the manufacturer's protocol, with 0.2 μg of plasmid DNA per well.
Luciferase production was quantified using the Promega Steady-Glo™ luciferase assay system. Luminescence was monitored using a Turner Biosystems (Sunnyvale, Calif., USA) Reporter microplate luminometer. Statistical analysis was performed using ANOVA and Tukey's multiple comparison test. […] Equal variances were tested using Bartlett's test, and normality by the D'Agostino & Pearson omnibus normality test.

In the next data set the test system is plasmid DNA. Description: Circular dichroism of plasmid DNA-gemini surfactant complexes. The conditions noted are these: with or without DOPE. Type of data set: physicochemical. As for the experimental part: CD spectra were obtained by using an Applied Photo Physics π*180 instrument (Leatherhead, UK) with a 4 nm slit, at room temperature.
(§1) Solutions for size, zeta potential, and circular dichrosicm (CD) measurements were prepared, in larger volumes, as described above for the transfection experiments using a pGTmCMV.IFN-GFP plasmid DNA, previously constructed in our lab. Solutions containing only surfactant and plasmid DNA were prepared by addition of an aliquot of stock plasmid DNA to the gemini surfactant solution to a charge ratio of 1:10 (DNA:surfactant).
On the technique in general: Circular dichroism is the unequal absorption of left and right circularly polarised light.

Data set [7] is described as follows: Size (hydrodynamic radius) and zeta potential as a function of pH. The conditions noted are these: PGL complexes. Type of data set: physicochemical. On the procedure:
Determinations of size (hydrodynamic radius, RH) and zeta potential (ζ) as a function of pH were carried out using a Malvern Instruments (Worcestershire, UK) ZetaSizer NanoZs with MPT-2 auto-titrator attachment. 10 mL of the desired sample was placed in the titration cell of the auto-titrator and samples were titrated (in 0.2-0.5 pH unit increments) with 0.1 M NaOH and 0.1 M HCl over the desired pH range. Size and zeta potential measurement were made in triplicate at each pH point, and the reported values represent the average±standard error. pH titrations of aqueous gemini surfactant solutions were made at a surfactant concentration of 2.00 mM, above the critical micelle concentration in all cases.
as §1

SMILES strings stand for the structures. “Also recorded” adds a separate entry of the source.

In the case of `CCCCCCCCCCCC[N+](C)(C)CCC[N+](C)(C)CCCCCCCCCCCC.[Br-].[Br-]` [12-3-12, reference compound], the “cell viability / toxicity (in words)” value with cultured cells is listed as “not statistically different from the control”. Besides, the “transfection efficiency within the 12-s-12 series, s=3-8 (in words)” value in [1] is on record as “best transfection efficiency; also recorded: most efficient transfection agent”. In data set [2], the “phase / morphology of lipid bilayers from scattering pattern (in words)” value is recorded as “predominantly hexagonal morphology”. The “transfection efficiency (in words)” value in data set [3] is on record as “low transfection efficiency”.

Regarding `CCCCCCCCCCCC[N+](C)(C)CCCNCCC[N+](C)(C)CCCCCCCCCCCC.[Br-].[Br-]` [12-7NH-12, 1,9-bis(dodecyl)-1,1,9,9-tetramethyl-5-imino-1,9-nonanediammonium dibromide], in data set [4], the “Head group area a0” value was 1.56 ± 0.04 nm^2/molecule. In addition, the “membrane charge density σM” value in [5] is on record as 0.920 ×10^−2 e/Å^2. Also, in data set [6], the “increase in transfection compared to the corresponding aza-substituted compound” value came out at 3 fold. Further, the “transfection efficiency (in words)” value in [6] (PGL complexes, with DOPE added) is listed as “enhanced transfection efficiency compared to the un-substituted surfactant, 12-3-12; also recorded: higher levels of transfection efficiency compared to the non-substituted gemini surfactant 12-3-12; also recorded: comparable to that of Lipofectamine Plus”; in data set [3] it was “significantly higher level of transfection efficiency”. For the same compound, the transfection efficiency in [6] (PGL system (plasmid DNA-gemini surfactant-DOPE), charge ratio 1:10) is given as 6.7±0.5 ng luciferase/2×10^4 cells. Moreover, in data set [6] (p<0.01), the “increase in transfection compared to an un-substituted gemini surfactant” value was found to be 9 fold. Further, the “DNA distortion from CD spectrum (in words)” value with plasmid DNA is “greatest DNA distortion”. Moreover, the “cell viability / toxicity (in words)” value in the data set with cultured cells was “not statistically significantly different from that of the 12-5N-12 and 12-8N-12”. In addition, in the data set on cultured cells (after transfection with plasmid DNA-gemini surfactant-DOPE or Lipofectamine Plus, relative to controls (no treatment or plasmid DNA alone)), the cell viability result is on record as “about 70%”. For the same compound, the “pH of transition in particle size and zeta potential” value in data set [7] was found to be 5.5. Moreover, the “d-spacing of main scattering peak” value in data set [2] is recorded as 59.4 Å.

For `CCCCCCCCCCCC[N+](C)(C)CCCCCCCC[N+](C)(C)CCCCCCCCCCCC.[Br-].[Br-]` [12-8-12], in data set [1], the “transfection efficiency within the 12-s-12 series, s=3-8 (in words)” value is “lowest”.
